Source: patent US9120849B2 (priority 2000, dated 2015)
Read-outs that look alike come from different tables or passages of the source.

Key:
[1] = tested on: duck hepatitis B virus (DHBV); settings: 60 minutes, 20° C., Reed and Muench
Description: This model uses primary duck hepatocytes (PDHs) as host (Pugh et al., 1999). We isolated and maintained PDHs from less than one week-old seronegative White Pekin ducklings (Anas dornesticus) with modifications from previous procedures (Berry and Friend, 1969, Seglen. 1976, Pugh and Summers, 1989, Pugh et al., 2000, Tuttleman et al., 1986). Briefly, ducks were euthanized by exposing them to C02 and livers were perfused twice via the atrium of the heart with approximately 200 mL each of two solutions. The first solution consisted of SWIM's S-77 medium (Sigma) supplemented with 0.5 mmol/L EGTA, 2 mmol/L Hepes (pH 7.45) and 50 ug/mL penicillin and streptomycin (Biofluids, Rockville, Md.). The second solution contained SWIM's S-77 medium supplemented with 2.5 mmol/L CaCl2, 0.5 mg of collagenase/mL (type I, Sigma, St. Louis) and 50 ug/mL penicillin and streptomycin. These perfusates were administered at approximately 15 mL/minute using a peristaltic pump and the temperature of the perftisate was adjusted to maintain the liver at 37° C. The liver was removed, minced with scissors and repeatedly mixed with a 25 mL pipette for hepatocyte dispersion into complete L-15 medium (Biofluids, Rockville, Md.) supplemented with 0.05-percent (w/v) sodium bicarbonate (Biofluids), 1 mmol/L glutamine (Biofluids), 20 mmol/L HEPES (Biofluids), 50 ug/mL penicillin and streptomycin (Biofluids), I (g/mL insulin (Sigma, St. Louis), and 10 (moi/L hydrocortisone-hemisuccinate (Sigma). Cells were filtered through sterile gauze, centrifuged at 50×g for 4 minutes, and the resulting cell pellet was washed three times with L-15 medium and resuspended in L-15 medium. 12-well plates were seeded with approximately two-mL of the cell suspension (ca. 10^5 cells). Media on the plated cells were aspirated every two days and replaced with fresh L-15 media.
Serum of four week-old congenitally infected duckling served as the source of virus used in these experiments. Treated and control DHBV spiked red cell samples were serially diluted 10-fold in L-15 medium and one-mL volumes were subsequently inoculated into PDH monolayers in quadruplicate. The infected cultures were incubated at 37° C.+20° C. with 5+1% C02 overnight for virus attachment and entry. The inoculum was then removed, cell monolayers washed once with complete L-15 medium to remove excess red blood cells, and then each well was overlaid with approximately 2-mL of fresh L-15 medium. Infected monolayers were incubated an additional 10-14 days at 37(+20° C. with 5+1% C02, with media changes every 2 days.
We detected the presence of DHB V-infected duck hepatocytes by an IFA. Briefly, the medium from the PDH monolayer was removed by aspiration, and the monolayers washed with agitation for 5-10 minutes with 1-2 mL of phosphate buffered saline (PBS). […]

[2] = tested on: HIV; settings: CEM cells
Description: This example describes one method of inactivation of the purified virus according to the invention by crosslinking of surface proteins. […] Titrations of the fixative were preformed above and below the concentration recommended by the CDC for inactivation of virus in biological fluids (May 8, 1992/41 (RR-8); 001 CDC Guidelines for the Performance of CD4+ T-Cell Determinations in Persons with Human Immunodeficiency Virus Infection). Initially, purified virus was slowly thawed at 2-8° C. for 6-8 hours to minimize lysis of the virus. Next, while on ice, virus was diluted with cold PBS to a final concentration of approximately 1×10^10 copies/mL (cp/mL). […] The reaction mixtures were then incubated at 2-8° C. for 60 minutes while gently rocking. […] After the addition of glycine the reactions were gently rocked for 2 hr. at 2-8° C. To remove glycine and any excess unquenched fixative each reaction mixture was then dialyzed (10-14K m.w. cutoff) against 1 L PBS (pH 7.4, 2-8° C.) for 4 changes. Dialyzed virus was then transferred into a 15 mL tube and centrifuged for 10 min. at 3,000×g to pellet any precipitated virus. A sample of each supernatant was then tested in cell culture for the presence of infectious virus.
The modified virus produced as described in Example 2 was tested to ensure the process inactivated the virus. As an illustration, the CEM cell line, obtained from the American Type Culture Collection was used as a host cell for viral infectivity studies. Advantages of using this line are that establishment of in vitro HIV infection requires relatively few virions and that the infection is chronic rather than lytic, facilitating analysis. For these studies, infection is detected and followed using the ZeptoMetrix HIV p24 Antigen EIA (ZeptoMetrix, Buffalo N.Y.).
CEM cells are cultured in RPMI-1640 containing 10% FBS in 24 well plates Cells are plated at 10^5 cells per well in a 1 ml volume and 100 ul of various dilutions of virus, either treated or untreated, are added to individual wells. Cultures are fed twice weekly by 50% media replacement and culture supernatants are assayed for HIV p24. All cultures initially contain HIV p24. However, in cultures where virus is noninfectious HIV p24 levels decrease over time eventually reaching background levels.
Different dilutions (1:8,000, 1:80,000, and 1:800,000) of treated virus were then placed into cultures of CEM cells and p24 assays were performed on culture supernatants on days 3, 7, 10, and 14 post-inoculation. Data are expressed as pg/ml of HIV p24 protein in the culture supernatants. The standard curve for the p24 assay is linear from 7.8 pg/ml to 125 pg/ml. HIV p24 concentrations below 7.8 pg/ml are expressed as “<7.8 pg/ml” to indicate sensitivity of the assay, and values above 125 pg/ml are expressed as “>125 pg/ml” since the assay is nonlinear above 125 pg/ml.

paraformaldehyde
71.8 pg/mL: HIV p24 protein in culture supernatants ([2]; 0.625% paraformaldehyde 60 min, treated HIV diluted 1:8,000, 3 days post-inoculation)
22.9 pg/mL: HIV p24 protein in culture supernatants ([2]; 0.625% paraformaldehyde 60 min, treated HIV diluted 1:8,000, 10 days post-inoculation)
109 pg/mL: HIV p24 protein in culture supernatants ([2]; 0.625% paraformaldehyde 60 min, treated HIV diluted 1:8,000, 7 days post-inoculation)
<7.8 pg/mL: HIV p24 protein in culture supernatants ([2]; 0.625% paraformaldehyde 60 min, treated HIV diluted 1:8,000, 14 days post-inoculation) | HIV p24 protein in culture supernatants ([2]; 0.625% paraformaldehyde 60 min, treated HIV diluted 1:80,000, 3 days post-inoculation) | HIV p24 protein in culture supernatants ([2]; 0.625% paraformaldehyde 60 min, treated HIV diluted 1:80,000, 7 days post-inoculation) | HIV p24 protein in culture supernatants ([2]; 0.625% paraformaldehyde 60 min, treated HIV diluted 1:80,000, 10 days post-inoculation) | HIV p24 protein in culture supernatants ([2]; 0.625% paraformaldehyde 60 min, treated HIV diluted 1:80,000, 14 days post-inoculation) | HIV p24 protein in culture supernatants ([2]; 0.625% paraformaldehyde 60 min, treated HIV diluted 1:800,000, 3 days post-inoculation) | HIV p24 protein in culture supernatants ([2]; 0.625% paraformaldehyde 60 min, treated HIV diluted 1:800,000, 7 days post-inoculation) | HIV p24 protein in culture supernatants ([2]; 0.625% paraformaldehyde 60 min, treated HIV diluted 1:800,000, 10 days post-inoculation) | HIV p24 protein in culture supernatants ([2]; 0.625% paraformaldehyde 60 min, treated HIV diluted 1:800,000, 14 days post-inoculation) | HIV p24 protein in culture supernatants ([2]; 1.25% paraformaldehyde 60 min, treated HIV diluted 1:8,000, 10 days post-inoculation) | HIV p24 protein in culture supernatants ([2]; 1.25% paraformaldehyde 60 min, treated HIV diluted 1:8,000, 14 days post-inoculation) | HIV p24 protein in culture supernatants ([2]; 1.25% paraformaldehyde 60 min, treated HIV diluted 1:80,000, 3 days post-inoculation) | HIV p24 protein in culture supernatants ([2]; 1.25% paraformaldehyde 60 min, treated HIV diluted 1:80,000, 7 days post-inoculation) | HIV p24 protein in culture supernatants ([2]; 1.25% paraformaldehyde 60 min, treated HIV diluted 1:80,000, 10 days post-inoculation) | HIV p24 protein in culture supernatants ([2]; 1.25% paraformaldehyde 60 min, treated HIV diluted 1:80,000, 14 days post-inoculation) | HIV p24 protein in culture supernatants ([2]; 1.25% paraformaldehyde 60 min, treated HIV diluted 1:800,000, 3 days post-inoculation) | HIV p24 protein in culture supernatants ([2]; 1.25% paraformaldehyde 60 min, treated HIV diluted 1:800,000, 7 days post-inoculation) | HIV p24 protein in culture supernatants ([2]; 1.25% paraformaldehyde 60 min, treated HIV diluted 1:800,000, 10 days post-inoculation) | HIV p24 protein in culture supernatants ([2]; 1.25% paraformaldehyde 60 min, treated HIV diluted 1:800,000, 14 days post-inoculation) | HIV p24 protein in culture supernatants ([2]; 2.5% paraformaldehyde 60 min, treated HIV diluted 1:8,000, 3 days post-inoculation) | HIV p24 protein in culture supernatants ([2]; 2.5% paraformaldehyde 60 min, treated HIV diluted 1:8,000, 7 days post-inoculation) | HIV p24 protein in culture supernatants ([2]; 2.5% paraformaldehyde 60 min, treated HIV diluted 1:8,000, 10 days post-inoculation) | HIV p24 protein in culture supernatants ([2]; 2.5% paraformaldehyde 60 min, treated HIV diluted 1:8,000, 14 days post-inoculation) | HIV p24 protein in culture supernatants ([2]; 2.5% paraformaldehyde 60 min, treated HIV diluted 1:80,000, 3 days post-inoculation) | HIV p24 protein in culture supernatants ([2]; 2.5% paraformaldehyde 60 min, treated HIV diluted 1:80,000, 7 days post-inoculation) | HIV p24 protein in culture supernatants ([2]; 2.5% paraformaldehyde 60 min, treated HIV diluted 1:80,000, 10 days post-inoculation) | HIV p24 protein in culture supernatants ([2]; 2.5% paraformaldehyde 60 min, treated HIV diluted 1:80,000, 14 days post-inoculation) | HIV p24 protein in culture supernatants ([2]; 2.5% paraformaldehyde 60 min, treated HIV diluted 1:800,000, 3 days post-inoculation) | HIV p24 protein in culture supernatants ([2]; 2.5% paraformaldehyde 60 min, treated HIV diluted 1:800,000, 7 days post-inoculation) | HIV p24 protein in culture supernatants ([2]; 2.5% paraformaldehyde 60 min, treated HIV diluted 1:800,000, 10 days post-inoculation) | HIV p24 protein in culture supernatants ([2]; 2.5% paraformaldehyde 60 min, treated HIV diluted 1:800,000, 14 days post-inoculation) | HIV p24 protein in culture supernatants ([2]; 5.0% paraformaldehyde 60 min, treated HIV diluted 1:8,000, 3 days post-inoculation) | HIV p24 protein in culture supernatants ([2]; 5.0% paraformaldehyde 60 min, treated HIV diluted 1:8,000, 7 days post-inoculation) | HIV p24 protein in culture supernatants ([2]; 5.0% paraformaldehyde 60 min, treated HIV diluted 1:8,000, 10 days post-inoculation) | HIV p24 protein in culture supernatants ([2]; 5.0% paraformaldehyde 60 min, treated HIV diluted 1:8,000, 14 days post-inoculation) | HIV p24 protein in culture supernatants ([2]; 5.0% paraformaldehyde 60 min, treated HIV diluted 1:80,000, 3 days post-inoculation) | HIV p24 protein in culture supernatants ([2]; 5.0% paraformaldehyde 60 min, treated HIV diluted 1:80,000, 7 days post-inoculation) | HIV p24 protein in culture supernatants ([2]; 5.0% paraformaldehyde 60 min, treated HIV diluted 1:80,000, 10 days post-inoculation) | HIV p24 protein in culture supernatants ([2]; 5.0% paraformaldehyde 60 min, treated HIV diluted 1:80,000, 14 days post-inoculation) | HIV p24 protein in culture supernatants ([2]; 5.0% paraformaldehyde 60 min, treated HIV diluted 1:800,000, 3 days post-inoculation) | HIV p24 protein in culture supernatants ([2]; 5.0% paraformaldehyde 60 min, treated HIV diluted 1:800,000, 7 days post-inoculation)
41.9 pg/mL: HIV p24 protein in culture supernatants ([2]; 1.25% paraformaldehyde 60 min, treated HIV diluted 1:8,000, 3 days post-inoculation)
0 FFFUD50/mL (log10): FFFUD50/mL (log10) ([1]; paraformaldehyde column 1) | FFFUD50/mL (log10) ([1]; paraformaldehyde column 2) | FFFUD50/mL (log10) ([1]; paraformaldehyde column 3) | FFFUD50/mL (log10) ([1]; paraformaldehyde column 4)
34.2 pg/mL: HIV p24 protein in culture supernatants ([2]; 1.25% paraformaldehyde 60 min, treated HIV diluted 1:8,000, 7 days post-inoculation)
